Measurements from patent publication US20180235909A1, “Use of 1-phenyl-3-dimethylaminopropane Compounds for Treating Rheumatoid Pain” (Gruenenthal GmbH, priority 2009, published 2018).

Test system: CFA-induced chronic arthritic pain
Experiment: CFA-induced chronic knee joint arthritic pain in rats, weight bearing (incapacitance tester)
Conditions: for Analgesic efficacy (mean percentage of maximal possible effect, weight bearing): highest possible dose without readout confounding side effects, five days post intraarticular CFA, n=10; for Side effects at higher doses: doses higher than the highest analyzed dose

## CC(C)Cc1ccc(C(C)C(=O)O)cc1 (centres unmarked) [Ibuprofen]
147 mg/kg ip
  Analgesic efficacy (mean percentage of maximal possible effect, weight bearing): 54.7% @ 147 mg/kg
147 mg/kg ip, listed as ibuprofen
  Analgesic efficacy (mean percentage of maximal possible effect, weight bearing): 54.7%
rats
  Side effects at higher doses: readout (weight bearing) confounding side effects

## COc1ccc2c3c1O[C@H]1C(=O)CC[C@@]4(O)[C@@H](C2)N(C)CC[C@]314 [Oxycodone]
0.464 mg/kg i.v.
  Analgesic efficacy (mean percentage of maximal possible effect, weight bearing): 46.1% @ 0.464 mg/kg
0.464 mg/kg i.v., listed as oxycodone
  Analgesic efficacy (mean percentage of maximal possible effect, weight bearing): 46.1%
rats
  Side effects at higher doses: readout (weight bearing) confounding side effects

## CN1CC[C@]23c4c5ccc(O)c4O[C@H]2[C@@H](O)C=C[C@H]3[C@H]1C5 [Morphine]
2.15 mg/kg iv
  Analgesic efficacy (mean percentage of maximal possible effect, weight bearing): 59.6% @ 2.15 mg/kg
2.15 mg/kg iv, listed as morphine
  Analgesic efficacy (mean percentage of maximal possible effect, weight bearing): 59.6%
rats
  Side effects at higher doses: readout (weight bearing) confounding side effects

## CC[C@@H](c1cccc(O)c1)[C@@H](C)CN(C)C [Tapentadol, (−)-(1R,2R)-3-(3-dimethylamino-1-ethyl-2-methyl-propyl)¬phenol]
rats
  Side effects at higher doses: readout (weight bearing) confounding side effects
i.v. administration, rats, dose dependence
  Effect on CFA-induced decrease in weight bearing: significantly reduced the CFA-induced decrease in weight bearing in a dose dependent manner
